This passage reports EC50 results from patent US10934282B2, “Heteroaromatic modulators of the retinoid-related orphan receptor gamma” (LEO PHARMA A/S, priority 2016, dated 2021).

Experiment [1] relates to IL-17A in Human peripheral mononuclear cells. Put plainly: Human PBMC IL-17A assay. Type of experiment: cell-based. To be noted: 72 h, EC50, antiCD3/antiCD28-coated beads, 3 days, alpha-LISA. The protocol: This assay measures the IL-17A inhibitory potential of test compounds in Human peripheral mononuclear cells.
Peripheral blood mononuclear cells (PBMC) were isolated from human buffy coats using density grade centrifugation (Lymphoprep, Medinor), washed twice in PBS and frozen at −150° C. for later use.
Test compounds were diluted in DMSO and 70 nL of titrated test and reference compounds were transferred by the Echo liquid handling system to a 384-well assay plate in to give a final concentration of 0.1% DMSO in the wells.
The PBMC were thawed, washed and suspended in RPMI-1640 supplemented with pen/strep, glutamax and 10% bovine calf serum. The cells were mixed with antiCD3/antiCD28-coated beads (1 cells pr one bead) (Milteney T-cell expansion kit), and immediately thereafter the cells were pipetted to the plate at 130,000c/well. The plate was incubated for 3 days in humidified air/CO2 (95%/5%) On day 3 the level of IL-17A in the culture supernatant is measured using alpha-LISA kit (Perkin Elmer). Cell viability was measured by adding 6 uL pr well Prestoblue© (Life Technologies) and incubating for 2 hours followed by fluorescent measurement (Ex535/Em615). EC50 values were calculated using a 4-parameter non-linear regression curve-fitting model. Donors may be pre-screened in order to select PBMC with a high secretion of IL-17A.
(In general: Alpha assays give light when donor and acceptor beads are brought close together.)

The subject of experiment [2] is IL-17A levels in human peripheral blood. Put plainly: tissue or blood. To be noted: 72 h, read-out: Human Whole blood IL-17A (nM). The format is cell-based.
Experiment [3] addresses T1, human RORgt nuclear receptor (RORgT ligand binding domain protein) (Homo sapiens, UniProt P51449).
T1 construct: purchased Proteros Biostructures GmbH
T1 sequence (P51449 with tags, fused parts or gaps): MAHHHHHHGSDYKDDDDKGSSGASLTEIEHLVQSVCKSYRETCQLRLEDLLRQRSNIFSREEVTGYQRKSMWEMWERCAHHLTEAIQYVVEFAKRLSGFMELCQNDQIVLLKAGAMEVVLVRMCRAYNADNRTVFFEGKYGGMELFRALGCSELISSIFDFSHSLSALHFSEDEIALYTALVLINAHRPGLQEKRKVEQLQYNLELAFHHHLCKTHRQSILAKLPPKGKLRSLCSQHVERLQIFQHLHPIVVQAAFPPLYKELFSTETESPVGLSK
Put plainly: ROR-gamma binding assay (Scintillation Proximity Assay, displacement of [3H]-25-hydroxycholesterol). To be noted: EC50, SPA, 15 nM [3H]-25-Hydroxycholesterol, RORgT LBD 12 nM. The protocol:
This assay is used to evaluate the binding affinity of compounds to the ligand-binding pocket of the human RORgt nuclear receptor based on displacement of a radio-ligand. The EC50 values are calculated using a four parameter fit. Compounds binding with high affinity to RORgt will have low EC50 values.
The assay is a Scintillation Proximity Assay (SPA) that involves competition between an unlabeled test compound and tritium-labeled 25-hydroxycholesterol for binding to RORgT ligand binding domain (LBD) protein immobilized on the surface of SPA beads. These beads contain a scintillant that emits light if excited by a radioactive particle, and this light is detected using a scintillation counter. In this assay, tritium-labelled 25-hydroxycholesterol is used as radiotracer.
400 nL of titrated test and reference compounds in DMSO were transferred by the Echo liquid handling system to a 384-well assay plate followed by addition of 5 μL [3H]-25-Hydroxycholesterol (Perkin Elmer) and 35 μL diluted RORgT LBD protein with the following amino acid sequence (HIS-FLG-tag): MAHHHHHHGSDYKDDDDKGSSGASLTEIEHLVQSVCKSYRETCQLRLEDLLRQRSNIFSREEVTGYQRKSMWEMWERCAHHLTEAIQYVVEFAKRLSGFMELCQNDQIVLLKAGAMEVVLVRMCRAYNADNRTVFFEGKYGGMELFRALGCSELISSIFDFSHSLSALHFSEDEIALYTALVLINAHRPGLQEKRKVEQLQYNLELAFHHHLCKTHRQSILAKLPPKGKLRSLCSQHVERLQIFQHLHPIVVQAAFPPLYKELFSTETESPVGLSK (SEQ ID NO: 1) (Purchased from Proteros Biostructures GmbH). After 30 min of preincubation, 40 μL of HIS-TAG PVT SPA beads (Perkin Elmer) were added. The plates were then incubated for minimum 4 hours at room temperature in darkness before measuring the SPA signal using a MicroBeta plate scintillation counter. Final assay conditions were: 50 mM HEPES pH 7.4, 150 mM NaCl, 5 mM MgCl2, 0.1% BSA, 4 μg/well HIS-TAG PVT SPA Beads, 30 ng/well RORgT LBD (equal to a final concentration of 12 nM), 15 nM [^3H]-25-Hydroxycholesterol, 0.5% DMSO and varying concentrations of test compound in a total volume of 80 μL/well. EC50 values were calculated using a 4-parameter non-linear regression curve-fitting model.

Regarding `Cc1cc(CN2CCN(C(=O)OC(C)C)[C@@H](C)C2)c(C)c(Nc2nnc([C@@H](N)[C@@H](C)O)o2)c1` [Example 41, isopropyl (2S)-4-[[3-[[5-[(1S,2R)-1-amino-2-hydroxy-propyl]-1,3,4-oxadiazol-2-yl]amino]-2,5-dimethyl-phenyl]methyl]-2-methyl-piperazine-1-carboxylate], the figures for the EC50 in experiment [1], in experiment [2] and in experiment [3] were 215 nM, 373 nM and 91.1 nM, respectively.
For `Cc1cc(CN2CCN(C(=O)OCC(F)(F)F)[C@@H](C)C2)c(C)c(Nc2nnc([C@H]3C[C@@H](O)C3)o2)c1` [Example 70, 2,2,2-trifluoroethyl (2S)-4-[[3-[[5-(3-hydroxycyclobutyl)-1,3,4-oxadiazol-2-yl]amino]-2,5-dimethyl-phenyl]methyl]-2-methyl-piperazine-1-carboxylate], the EC50 in experiment [1] is 78.5 nM; in experiment [2], 227 nM; in experiment [3], 52.2 nM.
Taken in the same sequence, the figures for `Cc1c(CN2CCN(C(=O)OC(C)C)[C@@H](C)C2)cc(Cl)cc1Nc1nnc(C2CCCOC2)o1` (stereo partly drawn) [Example 44, isopropyl (2S)-4-[[5-chloro-2-methyl-3-[(5-tetrahydropyran-3-yl-1,3,4-oxadiazol-2-yl)amino]phenyl]methyl]-2-methyl-piperazine-1-carboxylate] were 26 nM, 330 nM and 22.7 nM.
Regarding `Cc1cc(CN2CCN(C(=O)OC(C)(C)C)[C@@H](C)C2)c(C)c(Nc2nnc([C@H]3C[C@@H](O)C3)o2)c1` [Example 29, tert-butyl (2S)-4-[[3-[[5-(3-hydroxycyclobutyl)-1,3,4-oxadiazol-2-yl]amino]-2,5-dimethyl-phenyl]methyl]-2-methyl-piperazine-1-carboxylate], the EC50 in experiment [1] turned out to be 117 nM; in experiment [2], 422 nM; in experiment [3], 37.8 nM.
With `Cc1cc(CN2CCN(C(=O)O[C@H](C)C(F)(F)F)[C@@H](C)C2)c(C)c(Nc2nnc([C@H]3NCC[C@H]3O)o2)c1` [Example 80, [(1R)-2,2,2-trifluoro-1-methyl-ethyl] (2S)-4-[[3-[[5-[(2S,3R)-3-hydroxypyrrolidin-2-yl]-1,3,4-oxadiazol-2-yl]amino]-2,5-dimethyl-phenyl]methyl]-2-methyl-piperazine-1-carboxylate], the EC50 is 70 nM in experiment [1] and 22.3 nM in experiment [3].
As for `Cc1cc(CN2CCN(C(=O)C3CCC3)[C@@H](C)C2)c(C)c(Nc2nnc(CC#N)o2)c1` [Example 15, 2-[5-[3-[[(3S)-4-(cyclobutanecarbonyl)-3-methyl-piperazin-1-yl]methyl]-2,5-dimethyl-anilino]-1,3,4-oxadiazol-2-yl]acetonitrile], the figures for the EC50 in experiment [1], in experiment [2] and in experiment [3] were 101 nM, 421 nM and 63.8 nM, respectively.
The corresponding values for `Cc1c(CN2CCN(C(=O)OC(C)C)[C@@H](C)C2)cc(Cl)cc1Nc1nnc(C2COC2)o1` [Example 40, isopropyl (2S)-4-[[5-chloro-2-methyl-3-[[5-(oxetan-3-yl)-1,3,4-oxadiazol-2-yl]amino]phenyl]methyl]-2-methyl-piperazine-1-carboxylate] are 212 nM, 365 nM and 21.2 nM.
Taken in the same sequence, the figures for `Cc1cc(CN2CCN(C(=O)OC(C)(C)C)[C@@H](C)C2)c(C)c(Nc2nnc(-c3ccno3)o2)c1` [Example 32, tert-butyl (2S)-4-[[3-[(5-isoxazol-5-yl-1,3,4-oxadiazol-2-yl)amino]-2,5-dimethyl-phenyl]methyl]-2-methyl-piperazine-1-carboxylate] were 101 nM, 392 nM and 26.4 nM.
The corresponding values for `Cc1cc(CN2CCN(C(=O)OC(C)C)[C@@H](C)C2)c(C)c(Nc2nnc([C@@H](N)CO)o2)c1` [Example 36, isopropyl (2S)-4-[[3-[[5-[(1S)-1-amino-2-hydroxy-ethyl]-1,3,4-oxadiazol-2-yl]amino]-2,5-dimethyl-phenyl]methyl]-2-methyl-piperazine-1-carboxylate] are 366 nM, 451 nM and 84.1 nM.
In the case of `Cc1c(CN2CCN(C(=O)OC(C)C)[C@@H](C)C2)cc(Cl)cc1Nc1nnc(C2(CO)CC2)o1` [Example 46, isopropyl (2S)-4-[[5-chloro-3-[[5-[1-(hydroxymethyl)cyclopropyl]-1,3,4-oxadiazol-2-yl]amino]-2-methyl-phenyl]methyl]-2-methyl-piperazine-1-carboxylate], the EC50 in experiment [1] was determined as 103 nM; in experiment [2], 322 nM; in experiment [3], 37.1 nM.
For the compound `CC[C@@H](C)OC(=O)N1CCN(Cc2cc(C)cc(Nc3nnc([C@H]4NCC[C@H]4O)o3)c2C)C[C@@H]1C` [Example 82, [(1R)-1-methylpropyl] (2S)-4-[[3-[[5-[(2S,3R)-3-hydroxypyrrolidin-2-yl]-1,3,4-oxadiazol-2-yl]amino]-2,5-dimethyl-phenyl]methyl]-2-methyl-piperazine-1-carboxylate], the results for the EC50 in experiment [1] and in experiment [3] were 46 nM and 32 nM, respectively.
The corresponding values for `Cc1cc(CN2CCN(C(=O)OCC(F)(F)F)[C@@H](C)C2)c(C)c(Nc2nnc([C@H]3NCC[C@H]3O)o2)c1` [Example 81, 2,2,2-trifluoroethyl (2S)-4-[[3-[[5-[(2S,3R)-3-hydroxypyrrolidin-2-yl]-1,3,4-oxadiazol-2-yl]amino]-2,5-dimethyl-phenyl]methyl]-2-methyl-piperazine-1-carboxylate] are 1520 nM and 110 nM.
The corresponding values for `Cc1cc(CN2CCN(C(=O)OC(C)(C)C)[C@@H](C)C2)c(C)c(Nc2nnc([C@H](C)O)o2)c1` [Example 28, tert-butyl (2S)-4-[[3-[[5-[(1S)-1-hydroxyethyl]-1,3,4-oxadiazol-2-yl]amino]-2,5-dimethyl-phenyl]methyl]-2-methyl-piperazine-1-carboxylate] are 107 nM and 35.5 nM.
Regarding `Cc1c(CN2CCN(C(=O)OCC(F)(F)F)[C@@H](C)C2)cc(Cl)cc1Nc1nnc(CC#N)o1` [Example 69, 2,2,2-trifluoroethyl (2S)-4-[[5-chloro-3-[[5-(cyanomethyl)-1,3,4-oxadiazol-2-yl]amino]-2-methyl-phenyl]methyl]-2-methyl-piperazine-1-carboxylate], the figures for the EC50 in experiment [1] and in experiment [3] were 308 nM and 70 nM, respectively.
The corresponding values for `Cc1c(CN2CCN(C(=O)c3ccccc3)[C@@H](C)C2)cc(Cl)cc1Nc1nnc(C#N)o1` [Example 1, 5-[3-[[(3S)-4-benzoyl-3-methyl-piperazin-1-yl]methyl]-5-chloro-2-methyl-anilino]-1,3,4-oxadiazole-2-carbonitrile] are 3030 nM and 40.2 nM.
